# Measured values: patent US20250093315A1, “MOLECULAR SENSORS, METHOD AND KIT FOR THE DETECTION AND QUANTIFICATION OF CARBON DIOXIDE” (ETH Zurich, priority 2022, published 2025)
# Key:
# HeLa cells = test: Cell imaging of CO2; assay type: cell-based; settings: 5 μM for 10 minutes; ambient air or 5% CO2; imaged at different time points
# Method: The selectivity of the compound (I4) was evaluated against common analytes in cells. HeLa cells were treated with compound (I4) [5 μM] for 10 minutes, followed by washing thrice to remove excess sensor. Then, as an exogenous CO2 model, the cells were incubated under ambient air or at 5% CO2 and imaged at different time points. […] In addition, time-dependent response of cells that were incubated under ambient conditions was attributed to basal levels of CO2 production by metabolic processes.
# [1] = Reaction kinetics by fluorescence at varying concentrations of sensor or CO2; settings: dependence for both (I1) and carbon dioxide
# Description: The reaction kinetics were investigated with the same compounds of Formulae (I1) and (I1b) by measuring fluorescence at different time points using varying concentrations of either (I1) or carbon dioxide.
Compound,fluorescent signal in cells (HeLa cells),reaction order [1]
CN(C)c1ccc2c(NCc3ccccc3N=P(c3ccccc3)(c3ccccc3)c3ccccc3)c3ccc(=[N+](C)C)cc-3oc2c1 [(I4)],significant time-dependent fluorescent increase in the red channel and decrease in the green channel,
CCN(CC)c1ccc2c(NCc3ccccc3N=P(c3ccccc3)(c3ccccc3)c3ccccc3)cc(=O)oc2c1 [Compound (I1)],,first-order dependence
